Data set [1] in a line: Hemato-chemical parameters and tolerability in treated mice. It counts as in vivo. To be noted: blood after euthanasia day 21; i.p. treatment day 1, 7, 14; means ± SD, n = 8. How it is done: (§1) Here, 1 × 10^6 A549/DX cells were mixed with 100 μl Matrigel implanted in 6-week-old female nu/nu BALB/C mice (Charles River Laboratories Italia, Calco, Italy), housed (5 per cage) under 12 h light/dark cycle, with food and drinking provided ad libitum. Tumor growth was measured daily by caliper, according to the equation (LxW2)/2, where L = tumor length and W = tumor width. When the tumor reached the volume of 50 mm^3, mice (n = 8/group) were randomized and treated as reported in the following groups, treated on day 1, 7, and 14 after randomization: (1) vehicle group (ctrl), treated intraperitoneally (i.p.) with 100 µL saline solution; (2) cis-Pt group, treated i.p. with 50 mg/kg cis-Pt, dissolved in 100 µL water/10% DMSO solution, according to Kopecka et al., 2015 [53]; (3) F397 group, treated i.p. with 750 nmoles of the compound, dissolved in 100 µL water/10% DMSO solution, corresponding to the maximum tolerated dose (not shown and Table 2); (4) F421 group, treated i.p. with 750 nmoles of the compound, dissolved in 100 µL water/10% DMSO solution i.p, corresponding to the maximum tolerated dose (not shown and Table 2); (5) cis-Pt/F397 group, treated i.p. with 50 mg/kg Cis-Pt and 750 nmoles of F397; (6) cis-Pt/F421 group, treated i.p. with 50 mg/kg cis-Pt and 750 nmoles of F421; (7) MK571 group, treated i.p. with 3 mg/kg MK571 dissolved in 100 µL water/10% DMSO solution, according to Jones et al., 1989 [56]; (8) MK571/F397 group, treated i.p. with 3 mg/kg MK571 and 750 nmoles of F397; (9) MK571/F421 group, treated i.p. with 3 mg/kg MK571 and 750 nmoles of F421. Tumor volumes were monitored daily. Animals were euthanized at day 21 after randomization with zolazepam (0.2 mL/kg) and xylazine (16 mg/kg). Lactate dehydrogenase (LDH), aspartate aminotransferase (AST), alanine aminotransferase (ALT), alkaline phosphatase (AP), creatinine, and creatine phosphokinase (CPK) were measured on blood samples collected immediately after euthanasia, using commercially available kits from Beckman Coulter Inc. (Beckman Coulter, Miami, FL, USA).

For data set [2], the system named is A549/DX cells. Nature of the data set: Cell viability (MTT) of A549/DX cells at 72 h, alone and in co-administration. It counts as cell-based, human. How it is done: Indeed, the accurate detection of cell viability in A549 cells was critical in calculating the SR in a reliable manner.
First, we wondered if there was a correlation between the inhibition of the MRP1 protein and the CS properties of the compounds.
(§2) The determination of cell growth was performed using an MTT assay at 24 or 72 h. On day 1, 10,000 cells/well were seeded into 96-well plates in a volume of 100 μL. […] In all the experiments, the various drug solvents (ethanol, DMSO) were added in each control to evaluate a possible solvent cytotoxicity. After the established incubation time with drugs, 10 μL MTT (0.5 mg/mL) was added to each well, and after 3 h incubation at 37°C, the supernatant was removed. The formazan crystals were solubilized using 100 μL of DMSO and the absorbance values at 570 and 630 nm were determined on the microplate reader Victor 3 from PerkinElmer Life Sciences. The absorbance of the untreated cells was considered equal to 100% cell viability; the viability of cells measured in each experimental condition was expressed as a percentage of viable cells in the considered condition vs. the viability of the untreated cells.

For data set [3], the system named is MDCK-MRP1 cells. Briefly: Antiproliferative MTT assay in MDCK-wt and MDCK-MRP1 cells, selectivity ratio. In kind it is cell-based, canine. To be noted: EC50 of MDCK cells/EC50 of MDCK-MRP1 cells. How it is done: Within the search for novel CS agents acting on MRP1 proteins, the compounds selected among the different series of sigma-2 ligands were investigated for their activity at MRP1, paralleled with their cytotoxicity in the parental Madin–Darby canine kidney (MDCK-wt) cells and in the MDR-derived cells (MDCK-MRP1) for the determination of their SR (EC50 parental cells/EC50 MDR cells). The activity at the MRP1 pump was determined measuring the transport inhibition of the pro-fluorescent probe Calcein-AM, an MRP1 substrate, in the MRP1-overexpressing cell line (MDCK-MRP1) by the in vitro biological assay usually performed to study an MRP1 interaction. […] The SR was measured as the EC50 of the MDCK cells/EC50 of the MDCK-MRP1 cells.
as §2
On the technique in general: Tetrazolium dyes change colour on reduction, which living cells bring about.

Data set [4] concerns the target MRP1 (Homo sapiens, UniProt P33527). Briefly: Calcein-AM transport inhibition in MDCK-MRP1 cells (MRP1 activity).
Method: Each cell line (30,000 cells per well) was seeded into a black CulturePlate 96/well plate with a 100 μL medium and allowed to become confluent overnight. […] In these experimental conditions, the Calcein cell accumulation in the absence and in the presence of the tested compounds was evaluated and the fluorescence basal level was estimated with the untreated cells. In treated wells, the increase in fluorescence with respect to the basal level was measured. EC50 values were determined by fitting the fluorescence increase percentage vs. log(dose).
The test system of data set [5] is A549/DX cells. Nature of the data set: In vivo tumor growth of A549/DX xenografts. The arrangement: species or system nu/nu BALB/C mice. The conditions noted are these: A549/DX xenografts, 50 mg/kg cis-Pt i.p. How it is done: In order to translate in vivo the capability of F397, F400, and F421 to act as “sensitizers”, A549/DX cells were implanted in immune-deficient BALB/C mice, and once the tumor reached the volume of 50 mm^3, the mice were randomized and treated […] with the vehicle (saline solution) and/or cis-Pt.
as §1

MRP1, sequence (P33527 whole entry): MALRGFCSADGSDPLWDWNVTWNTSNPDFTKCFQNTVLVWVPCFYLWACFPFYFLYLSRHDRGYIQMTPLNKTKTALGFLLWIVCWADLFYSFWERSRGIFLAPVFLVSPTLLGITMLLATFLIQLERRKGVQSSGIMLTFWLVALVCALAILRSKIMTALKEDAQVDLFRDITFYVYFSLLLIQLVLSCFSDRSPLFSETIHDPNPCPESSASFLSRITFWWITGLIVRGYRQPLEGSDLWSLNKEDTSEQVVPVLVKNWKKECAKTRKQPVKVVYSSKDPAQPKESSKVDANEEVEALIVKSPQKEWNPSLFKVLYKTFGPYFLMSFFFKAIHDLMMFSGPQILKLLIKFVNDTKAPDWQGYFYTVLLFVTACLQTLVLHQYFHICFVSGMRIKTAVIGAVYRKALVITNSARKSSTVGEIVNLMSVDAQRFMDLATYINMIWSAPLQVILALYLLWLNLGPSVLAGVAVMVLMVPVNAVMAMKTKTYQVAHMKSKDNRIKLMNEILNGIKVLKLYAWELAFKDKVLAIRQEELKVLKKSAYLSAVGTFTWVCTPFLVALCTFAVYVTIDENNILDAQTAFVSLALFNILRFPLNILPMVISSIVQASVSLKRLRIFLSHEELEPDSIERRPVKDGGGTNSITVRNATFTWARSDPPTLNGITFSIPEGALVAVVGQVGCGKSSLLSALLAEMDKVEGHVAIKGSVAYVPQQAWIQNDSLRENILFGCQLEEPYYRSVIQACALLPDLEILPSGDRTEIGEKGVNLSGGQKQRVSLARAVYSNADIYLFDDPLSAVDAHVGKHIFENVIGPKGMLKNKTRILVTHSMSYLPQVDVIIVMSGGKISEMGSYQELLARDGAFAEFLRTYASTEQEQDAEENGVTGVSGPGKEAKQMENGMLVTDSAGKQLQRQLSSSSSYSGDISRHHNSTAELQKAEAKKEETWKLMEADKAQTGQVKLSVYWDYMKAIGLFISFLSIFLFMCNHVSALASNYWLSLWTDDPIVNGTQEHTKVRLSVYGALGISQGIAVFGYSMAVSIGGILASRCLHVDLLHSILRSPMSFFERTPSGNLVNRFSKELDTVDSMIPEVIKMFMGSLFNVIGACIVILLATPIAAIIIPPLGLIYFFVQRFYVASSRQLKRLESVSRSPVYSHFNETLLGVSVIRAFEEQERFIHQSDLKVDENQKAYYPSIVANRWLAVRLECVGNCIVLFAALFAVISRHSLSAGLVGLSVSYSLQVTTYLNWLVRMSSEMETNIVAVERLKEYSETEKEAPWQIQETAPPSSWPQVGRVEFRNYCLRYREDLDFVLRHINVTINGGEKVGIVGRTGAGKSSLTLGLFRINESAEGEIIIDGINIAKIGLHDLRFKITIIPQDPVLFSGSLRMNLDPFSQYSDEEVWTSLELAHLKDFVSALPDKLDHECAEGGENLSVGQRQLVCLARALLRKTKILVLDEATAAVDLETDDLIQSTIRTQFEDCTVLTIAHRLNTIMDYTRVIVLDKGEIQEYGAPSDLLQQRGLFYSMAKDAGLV

In data set [1], `CN(C)C(=O)CCSC(SCCC(=O)O)c1cccc(/C=C/c2ccc3ccc(Cl)cc3n2)c1` (stereo not drawn) [MK571, reference compound] showed an ALT of 41 ± 7 U/L, an AP of 117 ± 33 U/L, an AST of 101 ± 33 U/L and a CPK of 334 ± 81 U/L. In data set [1], this compound yielded an LDH of 7141 ± 927 U/L. In addition, in data set [2] (25 μM alone), the “Cytotoxicity / antiproliferative effect alone” value is reported as “not cytotoxic”.
As for `Fc1ccc(-n2cc(CCCCN3CCC4(CC3)OCc3ccccc34)c3ccccc32)cc1` [Siramesine, siramesine, reference compound], the “SR (selectivity ratio)” value in data set [3] came out at 0.56. In addition, the EC50 (in general, the concentration at which the effect is half-maximal) in data set [4] was 23.2 ± 4.5 µM.
For `N.N.[Cl][Pt][Cl]` [Cis-Pt, cis-platinum, reference compound], the “Tumor growth, cis-Pt alone” value in data set [5] was “resistance of A549/DX against the standard chemotherapy regimen”. For the same compound, in data set [1], the ALT stood at 41 ± 9 U/L, the AP came out at 129 ± 14 U/L, the AST worked out at 91 ± 34 U/L and the CPK is on record as 259 ± 98 U/L. The LDH in data set [1] is 7092 ± 542 U/L. Moreover, the “Sensitivity to cis-Pt co-administrated with MK571” value in data set [2] (cis-Pt 25 μM + MK571 25 μM) is recorded as “restored when co-administrated with MK571”.

These data come from publication PMC7247425, “MRP1-Collateral Sensitizers as a Novel Therapeutic Approach in Resistant Cancer Therapy: An In Vitro and In Vivo Study in Lung Resistant Tumor” (International Journal of Molecular Sciences, 2020).
